Test results published in patent US20060287315A1, “Pyrazinedicarboxamides and their use” (Bayer HealthCare AG, priority 2004, published 2006).
Counter-ions that a name gives are not always drawn.

target: human factor Xa (FXa) (Homo sapiens, UniProt P00742); experiment: Determination of the factor Xa inhibition (chromogenic substrate); assay type: biochemical; details: human FXa 0.5 nmol/l, Pefachrome FXa substrate, 25° C., pH 8.3, extinction at 405 nm
Protocol: A.1) Determination of the Factor Xa Inhibition:
The enzymatic inhibition of human factor Xa (FXa) is measured using the conversion of a chromogenic substrate specific for FXa. Factor Xa cleaves p-nitroaniline from the chromogenic substrate. The determinations are carried out in microtitre plates as follows:
The test substances, in various concentrations, are dissolved in DMSO and incubated for 10 minutes at 25° C. with human FXa (0.5 nmol/l dissolved in 50 mmol/l of Tris buffer [C,C,C-tris(hydroxymethyl)aminomethane], 150 mmol/l of NaCl, 0.1% BSA [bovine serum albumin], pH=8.3). Pure DMSO is used as control. The chromogenic substrate ([…] Pefachrome® FXa from Pentapharm) is then added. After an incubation time of 20 minutes at 25° C., the extinction at 405 nm is determined.

Chain of human factor Xa (FXa) (P00742 235-488 limits assumed): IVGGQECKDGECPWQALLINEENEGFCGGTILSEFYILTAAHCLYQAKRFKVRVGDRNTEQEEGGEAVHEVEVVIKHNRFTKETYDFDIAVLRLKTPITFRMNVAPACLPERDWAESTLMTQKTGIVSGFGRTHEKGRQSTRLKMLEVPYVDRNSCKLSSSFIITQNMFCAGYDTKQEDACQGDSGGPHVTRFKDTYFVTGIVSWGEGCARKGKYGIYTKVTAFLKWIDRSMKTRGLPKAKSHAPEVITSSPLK
Chain of human factor Xa (FXa) (P00742 41-179 partner limits assumed): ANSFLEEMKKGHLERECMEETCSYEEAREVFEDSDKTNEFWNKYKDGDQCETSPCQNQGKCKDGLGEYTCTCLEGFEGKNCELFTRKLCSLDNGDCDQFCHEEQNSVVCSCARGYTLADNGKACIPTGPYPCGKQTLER

Row | SMILES | IC50 [nM]
1 | O=C(Nc1ccc(Cl)cn1)c1nccnc1C(=O)Nc1ccc(N2CCCC(O)C2=O)cc1F (centres unmarked) [Example 9, N-(5-Chloropyridin-2-yl)-N′-[2-fluor-4-(3-hydroxy-2-oxopiperidin-1-yl)phenyl]pyrazine-2,3-di-carboxamide] | 4.4
2 | O=C(Nc1ccc(Cl)cc1)c1nccnc1C(=O)Nc1ccc(N2CCOCC2=O)cc1 [Example 11, N-(4-Chlorophenyl)-N′-[4-(3-oxomorpholin-4-yl)phenyl]pyrazine-2,3-dicarboxamide] | 0.49
3 | O=C(Nc1ccc(N2CCOCC2=O)cc1)c1nccnc1C(=O)Nc1ccc(Cl)cn1 [Example 12, N-(5-Chloropyridin-2-yl)-N′[4-(3-oxomorpholin-4-yl)phenyl]pyrazine-2,3-dicarboxamide] | 0.16
4 | O=C(Nc1ccc(F)cc1)c1nccnc1C(=O)Nc1ccc(N2CCOCC2=O)cc1 [Example 17, N-(4-Fluorophenyl)-N′[4-(3-oxomorpholin-4-yl)phenyl]pyrazine-2,3-dicarboxamide] | 16
5 | Cc1ccc(NC(=O)c2nccnc2C(=O)Nc2ccc(N3CCOCC3=O)cc2)cc1 [Example 18, N-(4-Methylphenyl)-N′-[4-(3-oxomorpholin-4-yl)phenyl]pyrazine-2,3-dicarboxamide] | 7.5

Results, then the molecule that gave them:

Row | IC50 [nM] | SMILES
6 | 6.3 | C#Cc1ccc(NC(=O)c2nccnc2C(=O)Nc2ccc(N3CCOCC3=O)cc2)cc1 [Example 20, N-(4-Ethynylphenyl)-N′-[4-(3-oxomorpholin-4-yl)phenyl]pyrazine-2,3-dicarboxamide]
7 | 0.44 | O=C(Nc1ccc(Cl)cn1)c1nccnc1C(=O)Nc1ccc(-n2cccc(CNC3CC3)c2=O)cc1F [Example 30, N-(5-Chloropyridin-2-yl)-N′-{4-[3-[(cyclopropylamino)methyl]-2-oxopyridin-1(2H)-yl]-2-fluorophenyl}pyrazine-2,3-dicarboxamide trifluoracetate, trifluoroacetate]
8 | 0.3 | NCCOc1cc(N2CCOCC2=O)ccc1NC(=O)c1nccnc1C(=O)Nc1ccc(Cl)cn1 [Example 32, N-[2-(2-Aminoethoxy)-4-(3-oxomorpholin-4-yl)phenyl]-N′-(5-chloropyridin-2-yl)pyrazine-2,3-dicarboxamide trifluoroacetate]
